Measured values from patent US20180193493A1, “RENAL IMAGING AGENT” (NIHON MEDI-PHYSICS CO., LTD., priority 2014, published 2018).

Key:
[1] = system: CKD model animals (adriamycin-treated Lewis rats), kidneys excluding the renal pelvis; test: PET imaging (static, SUV) in CKD models; format: in vivo
Procedure: (§1) Adriamycin (from Wako Pure Chemical Industries, Ltd., 7.5 mg/kg) was administered to 13 Lewis rats (male, 8-week-old, available from Japan SLC, Inc.) via the tail vein, and urinary protein was measured in accordance with the Bradford method on day 13 after the administration, for 11 cases excluding two dead cases. Of these, four cases having a high urinary protein level were selected as CKD model animals, and used in the below-described examples on day 14 after the administration of adriamycin.
(§2) ^18F-HIC101 (radiochemical purity: 84.2%) was administered to the four CKD models prepared in Example 1 at 18.6±0.9 MBq/rat and to four healthy models at 17.0±2.7 MBq/rat, and after 80 minutes from the administration, static imaging was performed using a PET system for animals (eXplore Vista from GE). The collection conditions were 10 minutes at an energy window of 250 to 700 keV. The collected data were reconstructed and imaged using the 3D-OSEM method. From the images, the average of maximum values of SUV (standardized uptake value) of the kidneys (the region of interest (ROI) was set excluding the renal pelvis) and the average value of SUV of normal tissue in each slice were measured. Based on these values, the lesion-to-normal tissue ratio and the normal kidney-to-normal tissue ratio were used for evaluation. Student's t-test was used for statistical analysis of the measured results.
(§3) ^18F-FMISO (radiochemical purity: 96% or more) was administered to the four CKD models prepared in Example 1 at 18.7±1.1 MBq/rat and to four healthy models at 19.5±0.69 MBq/rat, and after 80 minutes from the administration, static imaging was performed using a PET system for animals (eXplore Vista from GE). One case each from each of the groups was placed under anesthesia again after the PET imaging, and imaging was performed after 180 minutes from the administration. The collection conditions were 10 minutes at an energy window of 250 to 700 keV, and the collected data were reconstructed and imaged using the 3D-OSEM method. From the images, the average of maximum values of SUV of the kidneys (the region of interest (ROI) was set excluding the renal pelvis) and the average value of SUV of normal tissue in each slice were measured. Based on these values, the lesion-to-normal tissue ratio and the normal kidney-to-normal tissue ratio were used for evaluation. Student's t-test was used for statistical analysis of the measured results.

[2] = system: healthy models (physiological saline-treated Lewis rats), kidneys excluding the renal pelvis; test: PET imaging (static, SUV) in healthy models; format: in vivo
Procedure: (§4) As healthy models, four cases prepared by administering an equivalent amount of physiological saline instead of adriamycin were used.
as §2, §3

[3] = system: CKD model animals (adriamycin-treated Lewis rats); test: Experiment of in vivo distribution in CKD models; details: 100 minutes after administration
Procedure: as §1
(§5) After the completion of the PET imaging in Example 2, these rats were placed under anesthesia until 100 minutes after the administration, and were sacrificed by exsanguination. Then, the left and right kidneys, blood, brain, lung, heart, liver, spleen, stomach, small intestine, large intestine, adrenal gland, muscles, bones, fat around the kidneys, urine, and the remaining whole body were extracted, and weights and amounts of radioactivity were measured. Student's t-test was used for statistical analysis of the results.
as §5, with “Three cases from each of” for “After”, “groups that underwent” for “completion of”, “imaging after 80 minutes from the administration” for “imaging”, “5, as well as one case from each of the groups that had not undergone PET imaging,” for “2, these rats”

[4] = system: healthy models (physiological saline-treated Lewis rats); test: Experiment of in vivo distribution in healthy models; details: healthy model; 100 minutes after administration
Procedure: as §4, §5
as §5, with “Three cases from each of” for “After”, “groups that underwent” for “completion of”, “imaging after 80 minutes from the administration” for “imaging”, “5, as well as one case from each of the groups that had not undergone PET imaging,” for “2, these rats”

[5] = CKD model group, PET after 80 min from administration
[6] = CKD model group, PET after 80 min from administration, ROI excluding renal pelvis
[7] = CKD model, one case, PET after 180 min from administration
[8] = healthy model group, PET after 80 min from administration
[9] = healthy model group, PET after 80 min from administration, ROI excluding renal pelvis
[10] = healthy model, one case, PET after 180 min from administration

## O=[N+]([O-])c1nccn1CC(O)C[18F] (stereo not shown) [^18F-FMISO, 1-[^18F]fluoro-3-(2-nitro-1H-imidazol-1-yl)-2-propanol]
[1]; [5]
  Normal Tissue SUV Average Value: 0.94 ± 0.11
  Renal Tissue (Lesion or Normal)-to-Normal Tissue Ratio, Left: 2.11 ± 0.14
  Renal Tissue (Lesion or Normal)-to-Normal Tissue Ratio, Right: 2.22 ± 0.10
  Renal Tissue SUV Maximum Value, Left: 1.97 ± 0.15
[1]; [6]
  Renal Tissue SUV Maximum Value, Right: 2.08 ± 0.22
[1]; [7]
  Normal Tissue SUV Average Value: 0.87
  Renal Tissue (Lesion or Normal)-to-Normal Tissue Ratio, Left: 3.17
  Renal Tissue (Lesion or Normal)-to-Normal Tissue Ratio, Right: 2.87
  Renal Tissue SUV Maximum Value, Left: 2.77
  Renal Tissue SUV Maximum Value, Right: 2.51
[1]; PET images after 180 minutes compared with after 80 minutes from administration
  Uptake in renal cortex versus renal pelvis: a tendency toward a higher uptake in the renal cortex than in the renal pelvis
[1]; after 180 minutes versus after 80 minutes from administration
  Change of SUV maximum value (ROI analysis): a tendency for the SUV maximum value to increase more than that after 80 minutes from the administration
[1]; summary of Examples 2 to 6
  Uptake into renal tissue excluding the renal pelvis, CKD models versus healthy models: uptaken into the renal tissue excluding the renal pelvis in the CKD models significantly, compared with the healthy models
[2]; [8]
  Normal Tissue SUV Average Value: 0.89 ± 0.03
  Renal Tissue (Lesion or Normal)-to-Normal Tissue Ratio, Left: 1.95 ± 0.05
  Renal Tissue (Lesion or Normal)-to-Normal Tissue Ratio, Right: 1.89 ± 0.13
  Renal Tissue SUV Maximum Value, Left: 1.74 ± 0.08
[2]; [9]
  Renal Tissue SUV Maximum Value, Right: 1.68 ± 0.14
[2]; [10]
  Normal Tissue SUV Average Value: 0.72
  Renal Tissue (Lesion or Normal)-to-Normal Tissue Ratio, Left: 2.31
  Renal Tissue (Lesion or Normal)-to-Normal Tissue Ratio, Right: 2.26
  Renal Tissue SUV Maximum Value, Left: 1.67
  Renal Tissue SUV Maximum Value, Right: 1.63
[3]
  In vivo distribution (radioactivity uptake), Blood: 0.44 ± 0.02
  In vivo distribution (radioactivity uptake), Heart: 0.53 ± 0.01
  In vivo distribution (radioactivity uptake), Kidney (Left): 1.08 ± 0.28
  In vivo distribution (radioactivity uptake), Kidney (Right): 1.09 ± 0.29
  In vivo distribution (radioactivity uptake), Large Intestine: 1.14 ± 0.10
  In vivo distribution (radioactivity uptake), Liver: 0.89 ± 0.28
  In vivo distribution (radioactivity uptake), Lung: 0.48 ± 0.02
  In vivo distribution (radioactivity uptake), Muscles: 0.47 ± 0.02
  In vivo distribution (radioactivity uptake), Small Intestine: 1.54 ± 0.67
  In vivo distribution (radioactivity), Urine: 2.60 ± 2.16 % ID
[4]
  In vivo distribution (radioactivity uptake), Blood: 0.30 ± 0.02
  In vivo distribution (radioactivity uptake), Heart: 0.34 ± 0.02
  In vivo distribution (radioactivity uptake), Kidney (Left): 0.53 ± 0.03
  In vivo distribution (radioactivity uptake), Kidney (Right): 0.55 ± 0.03
  In vivo distribution (radioactivity uptake), Large Intestine: 1.52 ± 0.15
  In vivo distribution (radioactivity uptake), Liver: 0.50 ± 0.04
  In vivo distribution (radioactivity uptake), Lung: 0.31 ± 0.02
  In vivo distribution (radioactivity uptake), Muscles: 0.30 ± 0.02
  In vivo distribution (radioactivity uptake), Small Intestine: 0.74 ± 0.11
  In vivo distribution (radioactivity), Urine: 9.50 ± 1.75 % ID

## O=[N+]([O-])c1nccn1CC(CO)(CO)C[18F] [^18F-HIC101, 2-[^18F]fluoromethyl-2-((2-nitro-1H-imidazol-1-yl)methyl)-1,3-propanediol]
[1]; [5]
  Normal Tissue SUV Average Value: 0.46 ± 0.04^$
  Renal Tissue (Lesion or Normal)-to-Normal Tissue Ratio, Left: 11.59 ± 1.88
  Renal Tissue (Lesion or Normal)-to-Normal Tissue Ratio, Right: 11.33 ± 1.57
  Renal Tissue SUV Maximum Value, Left: 5.25 ± 0.55
[1]; [6]
  Renal Tissue SUV Maximum Value, Right: 5.17 ± 0.70
[1]; MIP PET image of FIG. 1, after 80 minutes from administration
  SUV maximum value of renal tissue in the example shown in FIG. 1: 10
[1]; individual CKD model of FIG. 3, (left)
  SUV maximum value of the CKD model examined for HIF-1α expression, (left): 4.30
[1]; individual CKD model of FIG. 3, (right)
  SUV maximum value of the CKD model examined for HIF-1α expression, (right): 5.12
[1]; summary of Examples 2 to 6
  Comparison of uptake in the CKD models between the two agents: higher than the uptake of ^18F-FMISO
  Uptake into renal tissue excluding the renal pelvis, CKD models versus healthy models: uptaken into the renal tissue excluding the renal pelvis in the CKD models significantly, compared with the healthy models
[2]; [8]
  Normal Tissue SUV Average Value: 0.37 ± 0.06
  Renal Tissue (Lesion or Normal)-to-Normal Tissue Ratio, Left: 3.69 ± 0.37
  Renal Tissue (Lesion or Normal)-to-Normal Tissue Ratio, Right: 3.77 ± 0.66
  Renal Tissue SUV Maximum Value, Left: 1.37 ± 0.28
[2]; [9]
  Renal Tissue SUV Maximum Value, Right: 1.42 ± 0.43
[2]; individual healthy model of FIG. 3
  SUV maximum value of the healthy model examined for HIF-1α expression: 1.06
[3]
  In vivo distribution (radioactivity uptake), Blood: 0.16 ± 0.04
  In vivo distribution (radioactivity uptake), Heart: 0.18 ± 0.04
  In vivo distribution (radioactivity uptake), Kidney (Left): 2.11 ± 0.44
  In vivo distribution (radioactivity uptake), Kidney (Right): 2.60 ± 0.58
  In vivo distribution (radioactivity uptake), Large Intestine: 3.17 ± 0.08
  In vivo distribution (radioactivity uptake), Liver: 0.34 ± 0.05
  In vivo distribution (radioactivity uptake), Lung: 0.18 ± 0.05
  In vivo distribution (radioactivity uptake), Muscles: 0.26 ± 0.04
  In vivo distribution (radioactivity uptake), Small Intestine: 0.25 ± 0.82
  In vivo distribution (radioactivity), Urine: 29.9 ± 14.9 % ID
[4]
  In vivo distribution (radioactivity uptake), Blood: 0.08 ± 0.03
  In vivo distribution (radioactivity uptake), Heart: 0.09 ± 0.03
  In vivo distribution (radioactivity uptake), Kidney (Left): 1.17 ± 0.61
  In vivo distribution (radioactivity uptake), Kidney (Right): 1.01 ± 0.24
  In vivo distribution (radioactivity uptake), Large Intestine: 0.32 ± 0.44
  In vivo distribution (radioactivity uptake), Liver: 0.23 ± 0.06
  In vivo distribution (radioactivity uptake), Lung: 0.08 ± 0.03
  In vivo distribution (radioactivity uptake), Muscles: 0.09 ± 0.03
  In vivo distribution (radioactivity uptake), Small Intestine: 4.50 ± 0.70
  In vivo distribution (radioactivity), Urine: 34.4 ± 23.3 % ID
